Structures are written as SMILES. Counter-ions that a name gives are not always drawn. Marks after values point to notes of the source that are not given here.

Type in all cases: in vivo
For experiment [1], the system named is rhythmic bladder contractions in urethane-anesthetized guinea pig. As to the kind of experiment: Rhythmic bladder contractions in urethane-anesthetized guinea pig (Test Example 1). The following applies: mean ± standard error, maximum observation period 30 minutes. As to the method:
The urinary frequency and urinary incontinence suppressing activity of NO-711 hydrochloride was evaluated by the ability to increase an interval between rhythmic bladder contractions in urethane-anesthetized guinea pig as an index. In this model, an urethra was ligated, a constant volume of a physiological saline (3 to 4.5 ml) warmed at 39°C was injected into the bladder to distend, and the regular rhythmic bladder contractions at a constant interval were observed. After the stable rhythmic bladder contractions were confirmed, a compound dissolved in physiological saline was administered intravenously to investigate the activity. Immediately after administration of a drug, the time of complete suppression of the rhythmic bladder contractions (rhythmic bladder contraction shutdown time, maximum observation period was 30 minutes) was measured. Table 1 A drug was administered intravenously. *P<0.05, **P<0.01 (significance to the physiological saline-administered control group, nonparametric Dunnett multiple comparison test, two-tailed test)

In experiment [2] the test system is bladder capacity in urethane-anesthetized rats. The experiment can be described thus: Bladder capacity (cystometry) in urethane-anesthetized rats (Test Example 3). The following applies: mean ± standard error. As to the method:
The urinary frequency and urinary incontinence suppressing activity of a GABA uptake inhibitor was shown by the ability to increase bladder capacity in urethane-anesthetized rats. After a bladder was made empty by drawing out the urine, physiological saline warmed at 39°C was injected into the bladder at a constant rate (0.05 ml/min.) to induce micturition. These procedures were repeated to confirm stable bladder capacity (volume of physiological saline injected until start of micturition) and, thereafter, compounds were administered intravenously to investigate the activities. A change in bladder capacity and micturition pressure after the administration was measured. […] Table 3 Tiagabin hydrochloride was dissolved in distilled water, other drugs were dissolved in physiological saline and the drugs were administered intravenously, respectively. Data are shown as the mean ± standard error. After drug administration, animals showing an overflow urinary incontinence-like cystometrogram (urine leakage without the bladder constriction) were excluded from calculation of micturition pressure. *P<0.05, **P<0.01 (significance to the values obtained before drug administration, paired t test, two-tailed test)

Experiment [3] has as its system rhythmic bladder contractions in urethane-anesthetized rats. As to the kind of experiment: Rhythmic bladder contractions in urethane-anesthetized rats (Test Example 2). The following applies: mean ± standard error; for Reflex shutdown time: maximum observation period 30 minutes. As to the method:
The urinary frequency and urinary incontinence suppressing activity of a GABA uptake inhibitor was measured as the ability to abolish the rhythmic bladder contractions in urethane-anesthetized rats as an index. An urethra was ligated, a constant volume of physiological saline warmed at 39°C was injected into the bladder to distend the detrusor muscle, and the regular rhythmic bladder contractions at a constant interval were observed. After the stable bladder contractions were confirmed, a compound was administered intravenously to investigate the activities. A time for completely suppressing the rhythmic bladder contractions after the drug administration (reflex shutdown time, a maximum observation period was 30 minutes) and a maximum contractile intravesical pressure at which the bladder contraction appeared again after the administration was measured. […] Table 2 Tiagabin hydrochloride was dissolved in distilled water, other drugs were dissolved in physiological saline, and the drugs were administered intravenously, respectively. Data are shown as mean ± standard error. *P<0.05, **P<0.01 (significance relative to the vehicle-administered control group, nonparametric Dunnett multiple comparison test, two-tailed test) ^#P<0.05 (significance to the values obtained before drug administration, paired t test, two-tailed test). A maximum contractile pressure was calculated from animals from which the bladder constriction was obtained in an observation period.

As to `O=C(O)C1=CCCN(CCON=C(c2ccccc2)c2ccccc2)C1` [NO-711 hydrochloride], the “Rhythmic bladder contraction shutdown time” value in experiment [1] (1 mg/kg intravenously) is 5.9 ± 1.3 min; in experiment [1] (3 mg/kg intravenously), 18.4±5.0* minutes; in experiment [1] (10 mg/kg intravenously), 16.9±3.6** minutes. The “Change in bladder capacity (Relative to before administration, %)” value in experiment [2] (0.3 mg/kg intravenously) is reported as -8.4±11.3%; in experiment [2] (1 mg/kg intravenously) it was 180.9±76.8* %; in experiment [2] (3 mg/kg intravenously) it was 188.7±45.3** %. Moreover, the “Change in micturition pressure (Relative to before administration, %)” value in experiment [2] (0.3 mg/kg intravenously) was -18.1±10.5%; in experiment [2] (1 mg/kg intravenously), 16.4±8.2%; in experiment [2] (3 mg/kg intravenously), 14.6±18.2%. Also, the “Change in maximum contractile intravesical pressure (Relative to before administration, %)” value in experiment [3] (0.3 mg/kg intravenously) is -3.3±3.2%; in experiment [3] (1 mg/kg intravenously) it was -19.7±5.6* %; in experiment [3] (3 mg/kg intravenously) it was -8.4±5.8%. Besides, the Reflex shutdown time is 3.8 ± 1.1 min in experiment [3] (0.3 mg/kg intravenously), 11.4±2.9** min in experiment [3] (1 mg/kg intravenously) and 12.1±2.5** min in experiment [3] (3 mg/kg intravenously).
